The target of test [1] is T1, calcium channel (Sus scrofa, UniProt A0A8W4FNC0).
T1 construct: pig aorta smooth muscle microsome preparations; from tissue; host or cells: pig aorta smooth muscle microsomes
As to the kind of experiment: Affinity for the calcium channel labelled with [^3 ] PN 200110, aorta smooth muscle microsome preparations. The following applies: pig aorta smooth muscle microsomes; means of three independent experiments. The format is binding. The source says: The results are expressed as IC50 (M) and represent means of three independent experiments.

Test [2] deals with DC-3F/AD. As to the kind of experiment: Cytotoxicity: reversal of resistance to actinomycin D (reversion factor), line DC-3F/AD. The format is cell-based, Chinese hamster. As to the method:
The parameter measured is the cytotoxicity of the antitumour drug, quantified in the absence and in the presence of the reversing compound. Two resistant cell lines were used: 1 Chinese hamster lung line, DC-3F/AD, the resistance of which was induced by actinomycin D. […] The compounds tested for their capacity to reverse the resistance are added at the same time as the cytotoxic agent. The cells are then incubated for 4 days.

In test [3] the test system is P 388. The experiment in a line: In vivo increase in antitumour activity of vincristine, sensitive line P388. The arrangement: species or system murine leukaemia in female B6D2F1 mice. As to the method:
(§1) The sensitive parent line P 388 (murine leukaemia) and the sub-line resistant to vincristine, P 388/VCR, were supplied by NCI (Frederick, USA). The tumour cells (10^6 cells) were inoculated on day 0 into the indraperitoneal cavity of female B6D2F1 mice (Iffa Credo, France) weighing from 18 to 20 g (groups of 8 to 10 animals).
Every day for 4 days, starting from day 1, the animals received: […]
(§2) 30 to 60 minutes later, an administration by the i.p. route of 0.25 mg/kg of vincristine (used as a reference antitumour agent).
(§3) The antitumour activity is expressed as follows: [formula]
(§4) The values are mean values obtained in independent experiments (# sem when n is greater than or equal to 3).
Using the sensitive line (P388) the tested compounds of the invention increase considerably the sensitivity of the cells to vincristine.

In test [4] the test system is KB-A1. The experiment in a line: Cytotoxicity: reversal of resistance to adriamycin (reversion factor), line KB-A1. The format is cell-based, Human. As to the method:
The parameter measured is the cytotoxicity of the antitumour drug, quantified in the absence and in the presence of the reversing compound. […] The compounds tested for their capacity to reverse the resistance are added at the same time as the cytotoxic agent. The cells are then incubated for 4 days.

Test [5] relates to P 388/VCR. As to the kind of experiment: In vivo increase in antitumour activity of vincristine, resistant line P 388/VCR. The arrangement: species or system murine leukaemia in female B6D2F1 mice.
Description: This study was completed by an in vivo study, using a murine leukaemia resistant to vincristine (P 388/VCR) and using the compounds of the present invention in association with vincristine.
as §1
Every day for 4 days, starting from day 1, the animals received:
an administration of 25 to 150 mg/kg by i.p., p.o. or i.v. route of the compound of the present invention to be tested, as mentioned in the table 4a; then
as §2, §3, §4

Test [6] relates to KB-A1. As to the kind of experiment: Flow cytometry: intracellular accumulation of ADR, line KB-A1. The format is cell-based, Human. The settings on record: ADR 50 μM, 5 hours. As to the method: Also measured was the effect of the compounds on the intracellular concentration of adriamycin. […] By measuring that fluorescence, it is thus possible to obtain a relative measurement of the intracellular concentration of ADR. […] The cells (5×10^5 per ml) were exposed simultaneously to ADR at a fixed concentration (50 μM) and to the tested compounds at various concentrations. After 5 hours' incubation, the intracellular accumulation of ADR was evaluated by FCM. […] The results were presented in the form of linear histograms of the intracellular ADR fluorescence. Expression of the results: for each of the histograms the mean fluorescence per channel (MEAN) was determined by the computer of the apparatus. For all experiments: a negative control (cells without ADR) fixed the autofluorescence threshold. a positive control (cells with ADR) determined the MEAN value=MN1. the "test" tubes (cells with ADR and with compound) were used to determine, for each of the compounds and at each of the concentrations, the MEAN values=MN2. The results are expressed in the form of variations from the mean fluorescence obtained for each of the "test" tubes (MN2) in relation to the mean fluorescence obtained with the positive control (MN1): VAR-MEAN=MN2-MN1. The measured parameter is thus the increase in ADR fluorescence in the presence of the tested compounds.

Where [7] appears, read: with VCR […] i.p., compound 150 mg/kg p.o.
Where [8] appears, read: VCR 0, compound 12.5 mg/kg p.o.
[9] abbreviates: with VCR […] i.p., compound 12.5 mg/kg p.o.

T1 sequence (A0A8W4FNC0 1-2067): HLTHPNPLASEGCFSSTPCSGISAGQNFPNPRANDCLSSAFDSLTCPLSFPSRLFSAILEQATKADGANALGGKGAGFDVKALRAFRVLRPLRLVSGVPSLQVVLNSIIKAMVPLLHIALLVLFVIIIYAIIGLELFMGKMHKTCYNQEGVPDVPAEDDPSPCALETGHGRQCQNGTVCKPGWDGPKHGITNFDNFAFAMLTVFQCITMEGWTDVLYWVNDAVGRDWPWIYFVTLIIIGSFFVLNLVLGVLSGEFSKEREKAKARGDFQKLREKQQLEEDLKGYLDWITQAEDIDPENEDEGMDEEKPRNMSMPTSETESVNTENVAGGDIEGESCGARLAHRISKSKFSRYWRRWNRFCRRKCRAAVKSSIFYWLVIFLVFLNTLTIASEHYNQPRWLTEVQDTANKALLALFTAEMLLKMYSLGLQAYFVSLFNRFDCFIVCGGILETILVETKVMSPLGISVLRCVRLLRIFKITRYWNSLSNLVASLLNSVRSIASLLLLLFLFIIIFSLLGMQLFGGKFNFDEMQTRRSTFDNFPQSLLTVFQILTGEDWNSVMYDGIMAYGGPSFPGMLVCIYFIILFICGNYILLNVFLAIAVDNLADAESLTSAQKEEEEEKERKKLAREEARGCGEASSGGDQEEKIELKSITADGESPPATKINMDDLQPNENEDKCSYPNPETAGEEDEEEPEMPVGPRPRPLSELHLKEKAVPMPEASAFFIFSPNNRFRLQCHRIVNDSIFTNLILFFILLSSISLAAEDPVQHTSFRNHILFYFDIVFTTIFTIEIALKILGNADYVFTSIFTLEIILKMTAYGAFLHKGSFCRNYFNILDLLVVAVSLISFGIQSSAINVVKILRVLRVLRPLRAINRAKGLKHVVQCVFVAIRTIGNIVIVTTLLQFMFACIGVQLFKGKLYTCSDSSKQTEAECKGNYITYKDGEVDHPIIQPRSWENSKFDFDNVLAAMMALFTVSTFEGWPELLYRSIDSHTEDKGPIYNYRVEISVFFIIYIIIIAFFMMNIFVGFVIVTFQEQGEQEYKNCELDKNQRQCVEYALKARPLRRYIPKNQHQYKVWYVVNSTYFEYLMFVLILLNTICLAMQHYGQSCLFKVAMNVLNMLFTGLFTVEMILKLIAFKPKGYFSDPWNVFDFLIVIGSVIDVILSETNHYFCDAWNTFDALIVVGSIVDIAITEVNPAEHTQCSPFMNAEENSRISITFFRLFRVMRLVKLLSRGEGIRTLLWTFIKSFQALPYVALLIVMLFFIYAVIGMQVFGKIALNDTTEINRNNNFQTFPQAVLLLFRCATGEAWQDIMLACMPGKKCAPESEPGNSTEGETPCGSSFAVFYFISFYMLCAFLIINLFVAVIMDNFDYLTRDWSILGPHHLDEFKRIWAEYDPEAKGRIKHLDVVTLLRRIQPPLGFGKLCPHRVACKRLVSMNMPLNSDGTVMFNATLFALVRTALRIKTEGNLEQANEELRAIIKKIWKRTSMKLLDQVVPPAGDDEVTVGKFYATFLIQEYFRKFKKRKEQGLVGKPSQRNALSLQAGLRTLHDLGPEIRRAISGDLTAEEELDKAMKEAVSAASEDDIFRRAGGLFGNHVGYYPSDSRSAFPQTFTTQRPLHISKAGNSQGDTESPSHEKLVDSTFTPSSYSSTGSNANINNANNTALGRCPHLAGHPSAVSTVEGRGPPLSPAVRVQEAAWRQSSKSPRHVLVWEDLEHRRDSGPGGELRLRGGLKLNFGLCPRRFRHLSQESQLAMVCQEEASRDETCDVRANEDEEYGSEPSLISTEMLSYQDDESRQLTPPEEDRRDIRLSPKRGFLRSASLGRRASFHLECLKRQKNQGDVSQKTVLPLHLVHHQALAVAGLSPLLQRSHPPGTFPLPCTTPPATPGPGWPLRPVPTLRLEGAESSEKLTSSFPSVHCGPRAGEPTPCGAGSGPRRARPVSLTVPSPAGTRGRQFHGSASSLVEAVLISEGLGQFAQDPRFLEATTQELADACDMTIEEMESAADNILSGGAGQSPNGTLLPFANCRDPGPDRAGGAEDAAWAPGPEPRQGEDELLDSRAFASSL

`CCOC(=O)C1=C(COCCOCCNCCc2ccccn2)NC(C)=C(C(=O)OC)C1c1cccc(Cl)c1Cl` (single isomer, unassigned) [Example 20, d-2-{2-[[2-(2-(N-pyrid-2-yl)ethylamino)ethoxy]ethoxy]methyl}-4-(2,3-dichlorophenyl)-3-ethoxycarbonyl-5-methoxycarbonyl-6-methyl-1,4-dihydropyridine]: the IC50 in test [1] came out at 2100 nM.

Take `CCOC(=O)C1=C(COCCOCCNCc2ccc([N+](=O)[O-])cc2)NC(C)=C(C(=O)OC)C1c1cccc(Cl)c1Cl` (stereo not drawn) [Example 1, d-2-{[2-(2-(N-p-nitrobenzylamino)ethoxy)ethoxy]methyl}-4-(2,3-dichlorophenyl)-3-ethoxycarbonyl-5-methoxycarbonyl-6-methyl-1,4-dihydropyridine]: the IC50 in test [1] worked out at 1600 nM. In addition, the “reversion factor (RF)” value in test [2] (compound 1 μM) was 21.0; in test [2] (compound 5 μM), 2,613.2; in test [4] (compound 1 μM), 32.1; in test [4] (compound 5 μM), 640.5. Further, the “Survivors on day 60” value in test [3] (VCR 0, compound 150 mg/kg p.o.) was 0/8; in test [3] (setting [7]), 4/8. The T/C in test [3] (VCR 0, compound 150 mg/kg p.o.) is on record as 99%; in test [3] (setting [7]) it was more than 532%; in test [5] (VCR 0, compound 50 mg/kg i.p.), 107%; in test [5] (VCR 0, compound 150 mg/kg p.o.), 99%; in test [5] (with VCR […] i.p., compound 50 mg/kg i.p.) it was 171%; in test [5] (setting [7]), 185%. For the same molecule, the “increase in the ADR fluorescence (VAR-MEAN)” value (from here on “increase”) worked out at 5.5 in test [6] (compound 1 μM), 45.7 in test [6] (compound 5 μM) and 26.1 in test [6] (compound […]).

On to `CCOC(=O)C1=C(COCCOCCNCc2ccc3ccccc3c2)NC(C)=C(C(=O)OC)C1c1cccc(Cl)c1Cl` (stereo not drawn) [Example 12, d-2-{[2-(2-(N-naphth-2-ylmethylamino)ethoxy)ethoxy]methyl}-4-(2,3-dichlorophenyl)-3-ethoxycarbonyl-5-methoxycarbonyl-6-methyl-1,4-dihydropyridine], for which the IC50 in test [1] worked out at 1300 nM. The “reversion factor (RF)” value was 1.1 in test [2] (compound 1 μM), 1,320.1 in test [2] (compound 5 μM), 1.2 in test [4] (compound 1 μM) and 125.4 in test [4] (compound 5 μM).

As for `CCOC(=O)C1=C(COCCOCCNCc2ccncc2)NC(C)=C(C(=O)OC)C1c1cccc(Cl)c1Cl` (stereo not drawn) [Example 15, d-2-{[2-(2-(N-pyrid-4-ylmethylamino)ethoxy)ethoxy]methyl}-4-(2,3-dichlorophenyl)-3-ethoxycarbonyl-5-methoxycarbonyl-6-methyl-1,4-dihydropyridine], the “reversion factor (RF)” value in test [2] (compound 1 μM) is on record as 301.4; in test [2] (compound 5 μM), 6,510.3; in test [4] (compound 1 μM), 12.1; in test [4] (compound 5 μM) it was 281.9. In addition, the “Survivors on day 60” value in test [3] (setting [8]) is given as 0/8; in test [3] (setting [9]) it was 3/8. The T/C in test [3] (setting [8]) stood at 101%; in test [3] (setting [9]) it was 540%; in test [5] (VCR 0, compound 25 mg/kg i.p.) it was 109%; in test [5] (VCR 0, compound 25 mg/kg i.v.) it was 94%; in test [5] (VCR 0, compound 25 mg/kg p.o.) it was 112%; in test [5] (with VCR […] i.p., compound 25 mg/kg i.p.), 262%. Besides, the T/C in test [5] (with VCR […] i.p., compound 25 mg/kg i.v.) was 186%; in test [5] (with VCR […] i.p., compound 25 mg/kg p.o.) it was 180%. Also, the “increase” value in test [6] (compound 1 μM) came out at 7.0; in test [6] (compound 5 μM), 38.6; in test [6] (compound […]) it was 16.1.

Consider `CCOC(=O)C1=C(COCCOCCNCc2ccccn2)NC(C)=C(C(=O)OC)C1c1cccc(Cl)c1Cl` (stereo not drawn) [Example 16, d-2-{[2-(2-(N-pyrid-2-ylmethylamino)ethoxy)ethoxy]methyl}-4-(2,3-dichlorophenyl)-3-ethoxycarbonyl-5-methoxycarbonyl-6-methyl-1,4-dihydropyridine], for which the IC50 in test [1] came out at 1600 nM. Further, the “reversion factor (RF)” value in test [2] (compound 1 μM) is 3.4; in test [2] (compound 5 μM), 8,248.4; in test [4] (compound 1 μM), 13.9; in test [4] (compound 5 μM) it was 122.4.

In the case of `CCOC(=O)C1=C(COCCOCCNCc2cccnc2)NC(C)=C(C(=O)OC)C1c1cccc(Cl)c1Cl` (stereo not drawn) [Example 17, d-2-{[2-(2-(N-pyrid-3-ylmethylamino)ethoxy)ethoxy]methyl}-4-(2,3-dichlorophenyl)-3-ethoxycarbonyl-5-methoxycarbonyl-6-methyl-1,4-dihydropyridine], the IC50 in test [1] worked out at 1400 nM. In addition, the “reversion factor (RF)” value in test [2] (compound 1 μM) was 3.7; in test [2] (compound 5 μM), 8,600.0; in test [4] (compound 1 μM) it was 10.5; in test [4] (compound 5 μM), 120.7.

Consider `CCOC(=O)C1=C(COCCOCCNCc2ccnc3ccccc23)NC(C)=C(C(=O)OC)C1c1cccc(Cl)c1Cl` (stereo not drawn) [Example 18, d-2-{[2-(2-(N-quinol-4-ylmethylamino)ethoxy)ethoxy]methyl}-4-(2,3-dichlorophenyl)-3-ethoxycarbonyl-5-methoxycarbonyl-6-methyl-1,4-dihydropyridine], for which, in test [1], the IC50 was found to be 1100 nM. The “reversion factor (RF)” value in test [2] (compound 1 μM) is 3.3; in test [2] (compound 5 μM), 5,018.4; in test [4] (compound 1 μM), 4.3; in test [4] (compound 5 μM), 348.2.

In the case of `CCOC(=O)C1=C(COCCOCCNCc2nccc3ccccc23)NC(C)=C(C(=O)OC)C1c1cccc(Cl)c1Cl` (stereo not drawn) [Example 19, d-2-{[2-(2-(N-isoquinol-1-ylmethylamino)ethoxy)ethoxy]methyl}-4-(2,3-dichlorophenyl)-3-ethoxycarbonyl-5-methoxycarbonyl-6-methyl-1,4-dihydropyridine], the 50% inhibitory concentration (IC50) in test [1] came out at 3200 nM. The “reversion factor (RF)” value in test [2] (compound 1 μM) was 1.5; in test [2] (compound 5 μM) it was 1,701.7; in test [4] (compound 1 μM), 3.6; in test [4] (compound 5 μM), 140.5. The “increase” value in test [6] (compound 1 μM) was 9.4; in test [6] (compound 5 μM) it was 34.7; in test [6] (compound […]), 15.7.

Consider `CCOC(=O)C1=C(COCCOCCNCc2c[nH]c3ccccc23)NC(C)=C(C(=O)OC)C1c1cccc(Cl)c1Cl` (stereo not drawn) [Example 22, d-2-{[2-(2-[N-(indol-3-yl)methylamino]ethoxy)ethoxy]methyl}-4-(2,3-dichlorophenyl)-3-ethoxycarbonyl-5-methoxycarbonyl-6-methyl-1,4-dihydropyridine], for which, in test [1], the IC50 is 3300 nM.

Turning to `CCOC(=O)C1=C(COCCOCCNCc2cnc3ccccc3c2)NC(C)=C(C(=O)OC)C1c1cccc(Cl)c1Cl` (stereo not drawn) [Example 23, d-2-{[2-(2-[N-(quinol-3-yl)methylamino]ethoxy)ethoxy]methyl}-4-(2,3-dichlorophenyl)-3-ethoxycarbonyl-5-methoxycarbonyl-6-methyl-1,4-dihydropyridine], the IC50 in test [1] was 2000 nM. Further, the “reversion factor (RF)” value is recorded as 10.2 in test [2] (compound 1 μM), 2,304.0 in test [2] (compound 5 μM), 19.6 in test [4] (compound 1 μM) and 1,035.8 in test [4] (compound 5 μM).

Values taken from patent US5389644A, “1,4-dihydropyridine compounds” (priority 1992, dated 1995).
